Patent US20100249172A1, “9-CHLORO NOSCAPINE AND ITS USE IN TREATING CANCERS, INCLUDING DRUG-RESISTANT CANCERS” (EMORY UNIVERSITY, priority 2007, published 2010)

What was measured:
MCF-7 cells = assay: Cell cycle analysis by flow cytometry (propidium iodide); assay type: cell-based, human; details: for G0/G1 % / G2/M % / S % / Sub-G1 %: mean ± S.E.M.; for accumulation of cells in the G2/M phase (in words): 24 hours; for percent sub-G1 cells compared with noscapine: lower doses (5 μM and 10 μM), 72 hours
Description: The flow cytometric evaluation of the cell cycle status was performed as described previously. Briefly, 2×10^6 cells were centrifuged, washed twice with ice-cold PBS, and fixed in 70% ethanol. Tubes containing the cell pellets were stored at 4° C. for at least 24 hours. Cells were then centrifuged at 1000×g for 10 min and the supernatant was discarded. The pellets were washed twice with 5 ml of PBS and then stained with 0.5 ml of propidium iodide (0.1% in 0.6% Triton-X in PBS) and 0.5 ml of RNase A (2 mg/ml) for 45 minutes in dark. Samples were then analyzed on a FACSCalibur flow cytometer (Beckman Coulter Inc., Fullerton, Calif.).
To investigate the precise mechanisms of cell death, the effect of 9-cloro-noscapine and other halogenated noscapine analogs on percent G2/M cells (mitotic index) and percent sub-G1 cells (apoptotic index) was examined as a function of dose and time in MCF-7 cells using fluorescence activated cell sorting (FACS) analysis. The effect of all compounds including noscapine was evaluated at three doses-5 μM, 10 μM and 25 μM for 0, 24, 48 and 72 hours of drug treatment. […] Fluorescently labeled DNA is a good indicator of cell cycle progression and cell death. An unreplicated complement of diploid (2N) DNA cells represents the G1 phase while duplicated tetraploid (4N) DNA cells represent G2 and M phases. Cells in the process of DNA duplication between diploid and tetraploid peaks represent S phase when DNA is being synthesized. Less than diploid DNA appears in populations of dying cells that degrade their DNA to different extents. Treatment of MCF-7 cells with these compounds for 0, 24, 48 and 72 hours led to profound perturbations of the cell cycle profile at 25 μM (FIGS. 3 A-D). […] The distribution of cell population over G0/G1, S, G2/M and sub-G1 phases of the cell cycle for 25 μM concentration is shown in Table 1.

tubulin = details: literature value [18]; read-out: dissociation constant (Kd) for binding to tubulin; cited from earlier work

Row | Structure (SMILES) | G0/G1 % (MCF-7 cells; 25 μM, 0 h) | G2/M % (MCF-7 cells; 25 μM, 0 h) | S % (MCF-7 cells; 25 μM, 0 h) | Sub-G1 % (MCF-7 cells; 25 μM, 0 h) | G0/G1 % (MCF-7 cells; 25 μM, 24 h) | G2/M % (MCF-7 cells; 25 μM, 24 h) | S % (MCF-7 cells; 25 μM, 24 h) | Sub-G1 % (MCF-7 cells; 25 μM, 24 h) | accumulation of cells in the G2/M phase (in words) (MCF-7 cells; 25 μM) | G0/G1 % (MCF-7 cells; 25 μM, 48 h) | G2/M % (MCF-7 cells; 25 μM, 48 h) | S % (MCF-7 cells; 25 μM, 48 h) | Sub-G1 % (MCF-7 cells; 25 μM, 48 h) | G0/G1 % (MCF-7 cells; 25 μM, 72 h) | G2/M % (MCF-7 cells; 25 μM, 72 h) | S % (MCF-7 cells; 25 μM, 72 h) | percent sub-G1 cells compared with noscapine (MCF-7 cells) | Sub-G1 % (MCF-7 cells; 25 μM, 72 h) | sub-G1 population compared with noscapine (MCF-7 cells; 25 μM) | Kd (tubulin)
1 | COc1ccc2c(c1OC)C(=O)O[C@@H]2[C@H]1c2c(c(Br)c3c(c2OC)OCO3)CCN1C [9-Br-nos] | 53.3 ± 2.8% | 28.9 ± 4.4% | 12.7 ± 1.8% | 0.2 ± 0.1% | 10.4 ± 1.8% | 61.9 ± 3.6% | 3.4 ± 1.2% | 6.9 ± 2.4% | massive accumulation of cells in the G2/M phase | 6.5 ± 2.5% | 43.8 ± 3.4% | 2.8 ± 0.7% | 35.1 ± 3.5% | 4.6 ± 2.1% | 33.7 ± 3.5% | 2.4 ± 1.6% | higher | – | – | –
2 | COc1ccc2c(c1OC)C(=O)O[C@@H]2[C@H]1c2c(c(F)c3c(c2OC)OCO3)CCN1C [9-F-nos] | 67.7 ± 5.6% | 18.5 ± 2.2% | 11.9 ± 1.5% | 0.2 ± 0.04% | 10.8 ± 2.4% | 65.9 ± 4.4% | 3.8 ± 1.1% | 6.8 ± 2.1% | massive accumulation of cells in the G2/M phase | 7.9 ± 2.8% | 43.7 ± 2.9% | 3.5 ± 0.8% | 34.5 ± 2.5% | 5.2 ± 2.2% | 34.4 ± 3.4% | 3.6 ± 1.5% | higher | 48.6 ± 3.3% | – | –
3 | COc1ccc2c(c1OC)C(=O)O[C@@H]2[C@H]1c2c(c(I)c3c(c2OC)OCO3)CCN1C [9-I-nos] | 60.6 ± 4.6% | 23.1 ± 3.7% | 13.9 ± 2.3% | 0.3 ± 0.2% | 17 ± 2.3% | 44.5 ± 5.1% | 3.1 ± 1.3% | 7.7 ± 1.7% | – | 15.4 ± 4.5% | 25.9 ± 4.1% | 2.9 ± 0.6% | 28.1 ± 3.1% | 17 ± 1.9% | 20.7 ± 2.2% | 4.9 ± 2.2% | – | 30.1 ± 3.1% | slightly lower | –
4 | COc1ccc2c(c1OC)C(=O)O[C@@H]2[C@H]1c2c(cc3c(c2OC)OCO3)CCN1C [Nos, (S)-6,7-dimethoxy-3-((R)-4-methoxy-6-methyl-5,6,7,8-tetrahydro[1,3]-dioxolo-[4,5-g]isoquinolin-5-yl)isobenzo-furan-1(3H)-one, reference compound] | 54.8 ± 0.03% | 29.9 ± 2.2% | 13.2 ± 0.2% | 0.2 ± 0.03% | 18.3 ± 3.3% | 50.2 ± 3.6% | 3.4 ± 0.8% | 10.2 ± 1.2% | – | 19.8 ± 1.9% | 28.07 ± 0.2% | 4.1 ± 0.6% | 36.8 ± 3.7% | 20.5 ± 0.2% | 26.3 ± 0.2% | 7.06 ± 0.2% | – | 36.9 ± 0.2% | – | 144 ± 2.8 µM
